We go through ten molecules from PubChem BioAssay (NCI).

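Values below derive from 48-hour exposures of cells grown in 96-well plates, with endpoints linearly interpolated between the two concentrations bracketing the appropriate inhibition level. TGI marks complete inhibition of growth.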 A value given as a limit tells only on which side of the number the result lay.

Test systems include SF-295 CNS; PC-3 prostate; M14 melanoma; SR leukemia; SK-MEL-28 melanoma; RPMI-8226 leukemia; SNB-19 CNS; NCI-H226 lung; RXF 393 renal; SN12C renal.
Holding throughout (assay): DTP human tumour cell line panel, 48 h

In general, TGI refers to the concentration at which net growth stops. The low end stands for greater sensitivity of the cells, the high end for lower sensitivity of the cells. Regarding `O=C1C=C/C(=C/[C@H]2SSC=C[C@]23C=CC(=O)C3)C1`, the concentration for total growth inhibition (TGI) was greater than 100 µM in the assay on SF-295 CNS; greater than 84.9 µM in the assay with PC-3 prostate; greater than 54.7 µM with M14 melanoma; greater than 100 µM with SR leukemia; 42 µM with SK-MEL-28 melanoma; greater than 100 µM in the assay on RPMI-8226 leukemia. Further, the total growth inhibition concentration (TGI) in the assay with SNB-19 CNS is greater than 100 µM; with NCI-H226 lung it was 29.2 µM; with RXF 393 renal it was 29.9 µM; in the assay with SN12C renal, 52.3 µM.

On to `CC(C)=CCc1c2c(c(O)c3c(=O)c4c(oc13)-c1ccc(O)cc1OC4C=C(C)C)C=CC(C)(C)O2` (stereo not given), for which the TGI is 28.6 µM in the assay with SF-295 CNS; 24.7 µM in the assay with PC-3 prostate; 35.4 µM in the assay with M14 melanoma; 16 µM in the assay with SR leukemia; 29.2 µM in the assay on SK-MEL-28 melanoma; 14.9 µM with RPMI-8226 leukemia. In addition, the TGI was 30.2 µM with SNB-19 CNS, 40.6 µM in the assay on NCI-H226 lung, 20.1 µM in the assay with RXF 393 renal and 17 µM with SN12C renal.

On to `CCC1CN2CCc3c([nH]c4ccccc34)[C@@](C(=O)OC)(c3cc4c(cc3OC)N(C)C3C(O)(C(=O)OC)C(C(=O)OC)C5(CC)C=CCN6CCC43C65)C[C@@H](C2)[C@@H]1C(C)(C)C` (stereo not given in full), for which the TGI in the assay with SF-295 CNS is 0.555 µM; in the assay with PC-3 prostate, 3.26 µM; in the assay with M14 melanoma it was 8.22 µM; in the assay on SR leukemia it was greater than 6.41 µM; with SK-MEL-28 melanoma, greater than 10 µM; in the assay on RPMI-8226 leukemia, greater than 4.43 µM. Further, the total growth inhibition concentration (TGI) was greater than 2.53 µM in the assay with SNB-19 CNS, 0.902 µM in the assay with NCI-H226 lung, greater than 10 µM in the assay on RXF 393 renal and 9.93 µM in the assay on SN12C renal.

Take `CC1CCCN1CCCOC(=O)c1ccc(OC2C=CCCC2)cc1` (stereo not given): the total growth inhibition concentration (TGI) is 37.9 µM with SF-295 CNS; 78.9 µM with PC-3 prostate; 31.6 µM in the assay on M14 melanoma; 59.9 µM in the assay with SR leukemia; greater than 100 µM in the assay on SK-MEL-28 melanoma; 68.2 µM in the assay with RPMI-8226 leukemia. Moreover, the concentration for total growth inhibition (TGI) was greater than 100 µM in the assay on SNB-19 CNS, 86.4 µM in the assay with NCI-H226 lung, 52 µM with RXF 393 renal and greater than 100 µM with SN12C renal.

As for `O=S(=O)(O)c1cc(O)c(N=Nc2ccc3ccccc3c2O)c2ccccc12`, the TGI is greater than 100 µM in the assay on SF-295 CNS; greater than 100 µM in the assay on PC-3 prostate; 41.4 µM in the assay with M14 melanoma; greater than 100 µM in the assay with SR leukemia; greater than 100 µM in the assay on SK-MEL-28 melanoma; greater than 100 µM in the assay with RPMI-8226 leukemia. In addition, the TGI was greater than 100 µM in the assay on SNB-19 CNS, 49.5 µM in the assay with NCI-H226 lung, greater than 100 µM with RXF 393 renal and greater than 100 µM in the assay on SN12C renal.

For the molecule `Clc1cc2ncn(C3CCCCO3)c2cc1Cl` (stereo not given), the TGI with SF-295 CNS, in the assay with PC-3 prostate, in the assay with M14 melanoma, in the assay on SR leukemia, in the assay with SK-MEL-28 melanoma and in the assay with RPMI-8226 leukemia was greater than 100 µM throughout. For the same molecule, the TGI in the assay with SNB-19 CNS was greater than 100 µM; in the assay with NCI-H226 lung, 80.9 µM; in the assay with RXF 393 renal, greater than 100 µM; in the assay with SN12C renal it was greater than 100 µM.

For `C=CCOC(=O)N1c2ccc(O)cc2[C@@]23O[C@@]24[C@@H]1C#C/C=C\C#C[C@]3(O)C(=O)C[C@@H]4C`, the TGI with SF-295 CNS is greater than 100 µM; in the assay with PC-3 prostate it was greater than 100 µM; in the assay with M14 melanoma, greater than 100 µM; in the assay with SR leukemia it was 42.3 µM; in the assay with SK-MEL-28 melanoma, greater than 100 µM; in the assay with RPMI-8226 leukemia, greater than 100 µM. Further, the TGI in the assay on SNB-19 CNS, in the assay with NCI-H226 lung, in the assay with RXF 393 renal and in the assay with SN12C renal was greater than 100 µM throughout.

Consider `COc1cc2c(cc1OC)C(=O)/C(=C/c1ccc(N(C)C)cc1)CC2`, for which the TGI in the assay with SF-295 CNS, with PC-3 prostate, with M14 melanoma, in the assay on SR leukemia, in the assay with SK-MEL-28 melanoma and in the assay on RPMI-8226 leukemia was greater than 10 µM throughout. The TGI in the assay on SNB-19 CNS, in the assay with NCI-H226 lung, in the assay on RXF 393 renal and with SN12C renal was greater than 10 µM each time.

Regarding `Cc1ccc(NCCN(C)C)c2c(=O)c3cc(O)ccc3sc12`, the TGI was determined as 18.4 µM in the assay with SF-295 CNS; 11.1 µM with PC-3 prostate; 10.4 µM with M14 melanoma; 4.79 µM in the assay with SR leukemia; 12.5 µM with SK-MEL-28 melanoma; 11.6 µM in the assay on RPMI-8226 leukemia. In addition, the concentration for total growth inhibition (TGI) in the assay with SNB-19 CNS amounted to 16.1 µM; in the assay on NCI-H226 lung, 15.2 µM; in the assay on RXF 393 renal it was 4.8 µM; in the assay on SN12C renal it was 14 µM.

`O=C1c2ccccc2C(=O)c2sc(Nc3cc(Cl)ccc3Cl)nc21`: the total growth inhibition concentration (TGI) in the assay on SF-295 CNS was 17.4 µM; in the assay with PC-3 prostate it was 18.5 µM; in the assay on M14 melanoma it was greater than 42.6 µM; with SR leukemia, greater than 100 µM; in the assay with SK-MEL-28 melanoma it was 27.3 µM; in the assay on RPMI-8226 leukemia it was 22.6 µM. Further, the concentration for total growth inhibition (TGI) was determined as 37.9 µM with SNB-19 CNS, 44.7 µM with NCI-H226 lung, 39.3 µM in the assay on RXF 393 renal and 3.17 µM in the assay with SN12C renal.
